Test results as given in patent publication US20230302071A1, “ANTIDEPRESSANT COMPOSITION CONTAINING PLEUROTUS ERYNGII EXTRACT AS ACTIVE INGREDIENT” (KOREA UNIVERSITY RESEARCH AND BUSINESS FOUNDATION, priority 2020, published 2023).

Key:
mice = test: Forced swimming test (FST), immobility time; format: in vivo; conditions: intraperitoneal, each sample 20 mg/kg, 30 minutes before test, 4-minute period, FIG. 5
Procedure: In order to verify whether the fractions of the Pleurotus eryngii extract according to the present invention actually have antidepressant efficacy, a forced swimming test was performed using experimental animals. The antidepressant efficacy was determined by measuring the immobility time during a forced swimming test, and the less the immobility time, the greater the antidepressant efficacy. To this end, mice were intraperitoneally injected with each of the ethanol extract of Pleurotus eryngii according to the present invention and the primary fraction and the secondary fraction of the ethanol extract, after which the immobility time during a forced swimming test was measured. Each sample was injected in an amount of 20 mg/kg into experimental mice. Also, a Prozac-administered group was used as a positive control. Four mice (n=4) were intraperitoneally injected with each sample and then allowed to stand for 30 minutes, after which the mice were submerged in water for 6 minutes and then washed for a while, water in the water tank was exchanged, and the mice were placed again in the water tank for 4 minutes to conduct this experiment. Statistical processing was performed by measuring the immobility time during the 4-minute experimental period.

[1] = tested on: serotonin receptor-mediated signaling in AGS cell line; test: Serotonin receptor-mediated signaling in AGS cell line by Western blotting (pErk, pJNK); format: cell-based, human; conditions: FIG. 4
Procedure: Whether the fractions of the Pleurotus eryngii extract according to the present invention were involved in serotonin receptor-mediated signaling by treating an AGS cell line known to overexpress serotonin receptors with the fractions of the Pleurotus eryngii extract according to the present invention was evaluated using Western blotting. Here, an anti-pERK antibody, anti-Erk antibody, anti-pJNK antibody, anti-JNK antibody, and anti-α Tubulin antibody were used for western blotting.

Structure (SMILES) | reduction in immobility time compared to negative control (mice) [%] | expression of phosphorylated pErk [1] | expression of phosphorylated pJNK [1]
CNCCC(Oc1ccc(C(F)(F)F)cc1)c1ccccc1 (stereo not drawn) [Prozac] | 24 | – | –
NCCc1c[nH]c2ccc(O)cc12 [serotonin] | – | increased | increased
